From patent US8637509B2, “Azaindazoles” (GlaxoSmithKline LLC, priority 2010, dated 2014)

Biological target: T1, EZH2 (Homo sapiens, UniProt Q15910)
T1 construct: GRITS37108
Experiment: EZH2 methyltransferase SPA assay (3H-SAM, Hela nucleosomes)
Assay type: biochemical
Conditions: 10 nM EZH2, 7 μg/ml Hela nucleosomes, 2-parameter IC50 fit; single-point-in-time values; read-out: IC50

T1 sequence (Q15910 whole entry): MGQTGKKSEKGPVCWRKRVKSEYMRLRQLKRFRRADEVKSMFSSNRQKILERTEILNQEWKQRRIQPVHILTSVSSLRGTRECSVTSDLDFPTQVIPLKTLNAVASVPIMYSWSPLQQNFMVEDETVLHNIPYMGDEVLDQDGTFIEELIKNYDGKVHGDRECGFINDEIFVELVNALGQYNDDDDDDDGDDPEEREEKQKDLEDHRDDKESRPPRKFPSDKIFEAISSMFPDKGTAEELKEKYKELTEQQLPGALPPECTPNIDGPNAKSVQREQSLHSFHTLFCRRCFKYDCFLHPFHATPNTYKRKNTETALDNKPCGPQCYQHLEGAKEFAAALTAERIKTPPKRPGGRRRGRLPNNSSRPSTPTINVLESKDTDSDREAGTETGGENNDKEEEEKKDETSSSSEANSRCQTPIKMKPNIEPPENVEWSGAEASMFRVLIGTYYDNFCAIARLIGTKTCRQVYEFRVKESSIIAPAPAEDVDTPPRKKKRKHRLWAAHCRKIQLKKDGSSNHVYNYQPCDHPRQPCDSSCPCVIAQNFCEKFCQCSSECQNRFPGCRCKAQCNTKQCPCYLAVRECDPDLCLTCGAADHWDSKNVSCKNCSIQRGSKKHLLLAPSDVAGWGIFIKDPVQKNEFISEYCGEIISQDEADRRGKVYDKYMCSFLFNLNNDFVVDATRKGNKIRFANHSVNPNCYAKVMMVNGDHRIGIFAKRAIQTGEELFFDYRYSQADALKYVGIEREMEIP
T1 sequence (O75530 whole entry partner): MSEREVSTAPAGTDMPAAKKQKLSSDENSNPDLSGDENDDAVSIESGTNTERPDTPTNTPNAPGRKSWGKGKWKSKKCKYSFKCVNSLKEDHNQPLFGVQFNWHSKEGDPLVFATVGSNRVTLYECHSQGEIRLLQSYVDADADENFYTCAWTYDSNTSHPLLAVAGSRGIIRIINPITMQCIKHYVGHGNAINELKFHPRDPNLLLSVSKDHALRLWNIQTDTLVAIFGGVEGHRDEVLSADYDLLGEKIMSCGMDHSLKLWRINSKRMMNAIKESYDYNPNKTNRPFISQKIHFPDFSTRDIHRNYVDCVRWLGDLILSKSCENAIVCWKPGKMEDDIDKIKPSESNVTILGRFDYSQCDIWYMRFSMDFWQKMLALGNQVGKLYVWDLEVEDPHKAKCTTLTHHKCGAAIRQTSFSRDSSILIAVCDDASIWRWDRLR
T1 sequence (Q15022 whole entry partner): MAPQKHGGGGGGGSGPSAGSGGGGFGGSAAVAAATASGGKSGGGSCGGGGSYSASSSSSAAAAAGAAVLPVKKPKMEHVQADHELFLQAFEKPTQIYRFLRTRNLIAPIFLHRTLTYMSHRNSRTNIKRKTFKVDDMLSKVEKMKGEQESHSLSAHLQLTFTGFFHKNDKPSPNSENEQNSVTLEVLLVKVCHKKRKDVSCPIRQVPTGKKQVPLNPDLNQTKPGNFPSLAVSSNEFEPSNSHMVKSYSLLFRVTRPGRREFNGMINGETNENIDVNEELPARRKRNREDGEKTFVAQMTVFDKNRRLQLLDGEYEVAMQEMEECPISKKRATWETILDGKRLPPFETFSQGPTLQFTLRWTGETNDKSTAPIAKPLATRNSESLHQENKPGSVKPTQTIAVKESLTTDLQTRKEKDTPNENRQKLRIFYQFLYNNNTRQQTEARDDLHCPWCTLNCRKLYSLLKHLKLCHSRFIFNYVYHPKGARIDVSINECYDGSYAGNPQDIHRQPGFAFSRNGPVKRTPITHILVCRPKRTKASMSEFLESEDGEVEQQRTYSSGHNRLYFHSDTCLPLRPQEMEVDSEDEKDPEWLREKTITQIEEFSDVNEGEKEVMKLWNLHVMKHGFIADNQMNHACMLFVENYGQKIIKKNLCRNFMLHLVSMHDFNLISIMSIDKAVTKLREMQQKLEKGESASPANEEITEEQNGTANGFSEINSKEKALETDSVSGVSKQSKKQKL

| Compound | IC50 |
| --- | --- |
| N-[(4,6-Dimethyl-2-oxo-1,2-dihydro-3-pyridinyl)methyl]-1-(1-methylethyl)-6-(2-phenylethyl)-1H-pyrazolo[3,4-b]pyridine-4-carboxamide [Ex 32] | 856 nM |

Same assay, conditions: read-out: IC50

| IC50 | Compound |
| --- | --- |
| 76 nM | CNS(=O)(=O)c1ccc(-c2cc(C(=O)NCc3c(C)cc(C)[nH]c3=O)c3c(C)nn(C(C)C)c3n2)cc1 [Ex 92, N-[(4,6-Dimethyl-2-oxo-1,2-dihydro-3-pyridinyl)methyl]-3-methyl-6-{4-[(methylamino)sulfonyl]phenyl}-1-(1-methylethyl)-1H-pyrazolo[3,4-b]pyridine-4-carboxamide] |
| 569 nM | CCc1cc(C)c(CNC(=O)c2cc(-c3ccncc3)nc3c2cnn3C(C)C)c(=O)[nH]1 [Ex 10, N-[(6-Ethyl-4-methyl-2-oxo-1,2-dihydro-3-pyridinyl)methyl]-1-(1-methylethyl)-6-(4-pyridinyl)-1H-pyrazolo[3,4-b]pyridine-4-carboxamide] |
| 43 nM | Cc1cc(C)c(CNC(=O)c2cc(-c3ccc(N4CCOCC4)nc3)nc3c2c(C)nn3C(C)C)c(=O)[nH]1 [Ex 83, N-[(4,6-Dimethyl-2-oxo-1,2-dihydro-3-pyridinyl)methyl]-3-methyl-1-(1-methylethyl)-6-[6-(4-morpholinyl)-3-pyridinyl]-1H-pyrazolo[3,4-b]pyridine-4-carboxamide] |
| 260 nM | Cc1cc(C)c(CNC(=O)c2cc(NCc3ccncc3)nc3c2cnn3C(C)C)c(=O)[nH]1 [Ex 55, N-[(4,6-Dimethyl-2-oxo-1,2-dihydro-3-pyridinyl)methyl]-1-(1-methylethyl)-6-[(4-pyridinylmethyl)amino]-1H-pyrazolo[3,4-b]pyridine-4-carboxamide] |
| 248 nM | COc1ccc(-c2cc(C(=O)NCc3c(C)cc(C)[nH]c3=O)c3cnn(C(C)C)c3n2)cc1 [Ex 113, N-[(4,6-Dimethyl-2-oxo-1,2-dihydro-3-pyridinyl)methyl]-1-(1-methylethyl)-6-[4-(methyloxy)phenyl]-1H-pyrazolo[3,4-b]pyridine-4-carboxamide] |
| 873 nM | Cc1cc(C)c(CNC(=O)c2cc(N(C)C)nc3c2cnn3C(C)C)c(=O)[nH]1 [Ex 24, 6-(Dimethylamino)-N-[(4,6-dimethyl-2-oxo-1,2-dihydro-3-pyridinyl)methyl]-1-(1-methylethyl)-1H-pyrazolo[3,4-b]pyridine-4-carboxamide] |
| 79 nM | COc1ncc(-c2cc(C(=O)NCc3c(C)cc(C)[nH]c3=O)c3cnn(C(C)C)c3n2)cc1NS(=O)(=O)C1CC1 [Ex 64, 6-[5-[(Cyclopropylsulfonyl)amino]-6-(methyloxy)-3-pyridinyl]-N-[(4,6-dimethyl-2-oxo-1,2-dihydro-3-pyridinyl)methyl]-1-(1-methylethyl)-1H-pyrazolo[3,4-b]pyridine-4-carboxamide] |
| 67 nM | Cc1cc(C)c(CNC(=O)c2cc(-c3ccc(N4CCOCC4)nc3)nc3c2c(C)nn3C(C)(C)C)c(=O)[nH]1 [Ex 89, 1-(1,1-Dimethylethyl)-N-[(4,6-dimethyl-2-oxo-1,2-dihydro-3-pyridinyl)methyl]-3-methyl-6-[6-(4-morpholinyl)-3-pyridinyl]-1H-pyrazolo[3,4-b]pyridine-4-carboxamide] |
| 57 nM | Cc1cc(C)c(CNC(=O)c2cc(-c3cnc4c(c3)CCC(=O)N4)nc3c2cnn3C(C)C)c(=O)[nH]1 [Ex 96, N-[(4,6-Dimethyl-2-oxo-1,2-dihydro-3-pyridinyl)methyl]-1-(1-methylethyl)-6-(7-oxo-1,5,6,7-tetrahydro-1,8-naphthyridin-3-yl)-1H-pyrazolo[3,4-b]pyridine-4-carboxamide] |
| 55 nM | CNS(=O)(=O)c1ccc(-c2cc(C(=O)NCc3c(C)cc(C)[nH]c3=O)c3cnn(C(C)C)c3n2)cn1 [Ex 97, N-[(4,6-Dimethyl-2-oxo-1,2-dihydro-3-pyridinyl)methyl]-6-{6-[(methylamino)sulfonyl]-3-pyridinyl}-1-(1-methylethyl)-1H-pyrazolo[3,4-b]pyridine-4-carboxamide] |
